For experiment [1], the species on record is Cavia porcellus. Kind of experiment: Inhibitory concentration of guinea pig ileum longitudinal muscle produced in response to electrically simulated release of acetylcholine. In kind it is functional, Muscle tissue.
Experiment [2] is filed under the species Cavia porcellus. The experiment is described as follows: Inhibitory concentration of guinea pig ileum longitudinal muscle strips to antagonize electrically stimulated contractions. The experiment is classed as functional. The following applies: Muscle tissue.
For experiment [3], the species on record is Cavia porcellus. Kind of experiment: Mean dissociation constant was measured for acetylcholine-induced contractions. The experiment is classed as functional.

Compound `CC(C)NCC[C@@](C(N)=O)(c1ccccc1)c1ccccn1` (stereo in doubt; 2 (2R)) gave an IC50 in the experiment listed under Cavia porcellus [1] of 14 µM. In the experiment listed under Cavia porcellus [1], `CC(C)NCC[C@@](C(N)=O)(c1ccccc1)c1ccccn1` (stereo in doubt; 2 (2S)) had an IC50 of 5 µM. `CC(C)N(CC[C@](C(N)=O)(c1ccccc1)c1ccccn1)C(C)C` [(S)-DISOPYRAMIDE] had an IC50 in the experiment listed under Cavia porcellus [1] (Cavia porcellus, Muscle tissue) of 4.5 µM. Turning to `CC(C)N(CCC(C(N)=O)(c1ccccc1)c1ccccn1)C(C)C` (configuration not stated) [DISOPYRAMIDE], the IC50 in the experiment filed under Cavia porcellus [2] was 1.5 µM. In the experiment filed under Cavia porcellus [3], this compound displayed a Kd of 2.2 µM. For `CC(C)NCCC(C(N)=O)(c1ccccc1)c1ccccn1` (configuration not stated) [N-MONODEISOPROPYL DISOPYRAMIDE], in that order: 3.2 µM and 3.8 µM.

The record behind these values is ChEMBL document CHEMBL1121838, “Synthesis and anticholinergic properties of the enantiomers of 4-(isopropylamino)-2-(2-pyridyl)-2-phenylbutyramide, the mono-N-dealkylated metabolite of disopyramide” (J Med Chem, 1981).
